The text below walks through data of ChEMBL document CHEMBL6134909 (Eur J Med Chem, 2025).

The subject of assay [1] is Influenza A virus. The assay can be described thus: Anti-viral activity against Influenza A virus H3N2 A/Hong Kong/11/1968 infected in human A549 cells assessed as decrease in viral replication at 1 uM incubated with compound and virus for 1 hr followed by inoculum removal and media replacement with compound measured after 48 hrs by extracting viral supernatant from cells and transferring supernatant to MDCK cells for measuring plaque formation. It counts as functional, organism-based. As to conditions: time 49.0 hrs.

For assay [2], the system named is Influenza A virus. Nature of the assay: Anti-viral activity against Influenza A virus H3N2 A/Hong Kong/11/1968 infected in human A549 cells assessed as log reduction in viral titer at 1 uM incubated with compound and virus for 1 hr followed by inoculum removal and media replacement with compound measured after 48 hrs by extracting viral supernatant from cells and transferring supernatant to MDCK cells for measuring plaque formation. It is filed as functional. The note with it: time 49 hrs.

Structures are written as SMILES. Calls of active or inactive are those of the source. The calls are words filed in the database; no cut-off is given here.

For the molecule `Fc1ccc(-c2nc3ncccn3c2NC2CCCCC2)cc1F`, in assay [1], the outcome was Active.
On to `Clc1cnc2nc(-c3ccccc3)c(NC3CCCCC3)n2c1`, for which, in assay [2], the log10PFU/ml is 1.5. The outcome in assay [1] was Active.
On to `Cc1cc(C)n2c(NC3CCCCC3)c(-c3ccnc(Cl)c3)nc2n1`, for which, in assay [1], the result was Active.
Turning to `Fc1ccc(-c2nc3ncccn3c2NC2CCCCC2)cc1N1CCOCC1`, the log10PFU/ml in assay [2] is reported as 1.5. The result in assay [1] was Active.
The like results for `Fc1cc(OCc2ccc(C(F)(F)F)cc2)ccc1-c1nc2ncccn2c1NC1CCCCC1` were, in that order, 1.5 and “Active”.
For the molecule `CN1CCN(c2ccc(-c3nc4ncc(Cl)cn4c3NC3CCCCC3)c(F)c2)CC1`, the outcome in assay [1] was Active.
In the case of `COc1cc(OC)cc(-c2nc3ncccn3c2NC2CCCCC2)c1`, the log10PFU/ml in assay [2] was 1.5. For the same molecule, the outcome in assay [1] was Active.
Turning to `Oc1ccc(-c2nc3ncccn3c2NC2CCCCC2)c(F)c1`, in assay [2], the log10PFU/ml is on record as 1.5. Moreover, in assay [1], the result was Active.
On to `CCOC(=O)c1c(CSc2ccccc2)n(C)c2cc(Br)c(O)c(CN(C)C)c12` [UMIFENOVIR], for which, in assay [2], the log10PFU/ml was determined as 1.5. The result in assay [1] was Active.
Turning to `COc1ccc(-c2nc3ncccn3c2NC2CCCCC2)cc1`, the result in assay [1] was Active.
Turning to `COCOc1ccc(-c2nc3ncccn3c2NC2CCCCC2)c(F)c1`, the log10PFU/ml in assay [2] came out at 1.5. In assay [1], the outcome was Active.
